Test results reported in patent publication US20080058330A1, “Compounds and Combinations Thereof for Inhibiting Beta-Amyloid Production and Methods of Use Thereof” (Roskamp Research LLC, priority 2006, published 2008).

Assays:
[1] = tested on: 7W WT APP751 CHO cells; assay: Screening of dihydropyridine compounds of Table 2, Aβ1-40 and Aβ1-42 ELISA (Example 5); format: cell-based, Chinese hamster; details: for concentration of Aβ1-40 or Aβ1-42 compared to control: 3, 10, 30 and 100 μM, 24 hours (FIGS. 22A, 22B, 23A, 23B); for concentration of Aβ1-40 compared to control: 3 and 10 μM, 24 hours (FIG. 24)
Method: (§1) Chinese hamster ovary (CHO) cells, stably transfected with human APP751 (7W WT APP751 CHO cells) were used. See, e.g., Koo and Squazzo, J. Biol. Chem., Vol. 269, Issue 26, 17386-17389, July, 1994. The cells were maintained in DMEM medium supplemented with 10% fetal bovine serum and IX mixture of penicillin/streptomycin/fungizone/glutamine mixture (Cambrex, Md.) geneticin as selecting agent in 75 cm^2 cell culture flasks.
(§2) The 7W WT APP751 CHO cells were plated in 24-well cell culture plates in quadruplicate, containing 1 ml of culture medium, and treated with various calcium channel blocker compounds for 4 hours, 24 hours or 48 hours at 37° C. and 5% CO2. All test compounds were diluted in dimethyl sulfoxide (DMSO) before being added to the cultured confluent 7W WT APP751 CHO cells. The culture medium was collected and diluted 5-fold for the 4 hours assay and 50-fold for the 24 hour assay before being assayed by ELISAs for Aβ1-40 and Aβ1-42, respectively. Concentrations of Aβ1-40 and Aβ1-42, expressed in pg/ml, were determined using commercially available ELISAs (Biosource, Calif.) in a colorimetric assay using labeled antibodies detected spectrophotometrically.
The screening of dihydropyridine compounds was conducted according to the procedure described in Example 1. Each compound was added to confluent cells to a final concentration of 3, 10, 30 or 100 μM and tested. Each of these compounds was added to confluent cells to a final concentration of 3 μM (noted as “C” in FIG. 24) or 10 μM (noted as “B” in FIG. 24).

[2] = tested on: Tg APPsw mice; details: Tg APPsw mice given the NSAID; correlating with decreased microglial activation; cited from earlier work
[3] = tested on: 7W WT APP751 CHO cells; assay: Measurement of Aβ1-40 and Aβ1-42 by ELISA after treatment with calcium channel blockers (Example 1); format: cell-based, Chinese hamster; details: 20 μM (FIG. 2)
Method: as §1
as §2, with “All test compounds were diluted in dimethyl sulfoxide (DMSO) before being added to the cultured confluent 7W WT APP751 CHO cells.” left out

SMILES | concentration of Aβ1-40 or Aβ1-42 compared to control [1] | concentration of Aβ1-40 compared to control [1] | other results
COCCOC(=O)C1=C(C)NC(C)=C(C(=O)OCCOC)C1c1ccccc1Cl [Example 2-19] | decreased |  | 
CCOC(=O)C1=C(C)NC(C)=C(C(=O)OCC)C1c1ccccc1Br [Example 2-23, Diethyl 4-(2-bromophenyl)-1,4-dihydro-2,6-dimethylpyridine-3,5-dicarboxylate] | decreased |  | 
CCOC(=O)C1=C(C)NC(C)=C(C(=O)OCC)C1c1ccccc1F [Example 2-27, Diethyl 4-(2-fluorophenyl)-1,4-dihydro-2,6-dimethylpyridine-3,5-dicarboxylate] | decreased |  | melting point: 151 to 152.5 °C
CC1=C(C(=O)OC(C)(C)C)C(c2ccccc2F)C(C(=O)OC(C)(C)C)=C(C)N1 [Example 2-28, Di-tert-butyl 4-(2-fluorophenyl)-1,4-dihydro-2,6-dimethylpyridine-3,5-dicarboxylate] | decreased |  | 
CCOC(=O)C1=C(C)NC(C)=C(C(=O)OCC)C1c1ccccc1[N+](=O)[O-] [Example 2-29, Diethyl 1,4-dihydro-2,6-dimethyl-4-(2-nitrophenyl)pyridine-3,5-dicarboxylate] | decreased |  | 
CC1=C(C(=O)OC(C)(C)C)C(c2ccccc2Br)C(C(=O)OC(C)(C)C)=C(C)N1 [Example 2-32, Di-tert-butyl 4-(2-bromophenyl)-1,4-dihydro-2,6-dimethylpyridine-3,5-dicarboxylate] | decreased |  | 
CC1=C(C(=O)OC(C)(C)C)C(c2ccccc2[N+](=O)[O-])C(C(=O)OC(C)(C)C)=C(C)N1 [Example 2-33, Di-tert-butyl 1,4-dihydro-2,6-dimethyl-4-(2-nitrophenyl)pyridine-3,5-dicarboxylate] | decreased |  | 
CCOC(=O)C1=C(C)NC(C)=C(C(=O)OCC)C1c1cccc(F)c1F [Example 3-22] |  | decreased | 
CC1=C(C(=O)OC(C)(C)C)C(c2cccc(F)c2F)C(C(=O)OC(C)(C)C)=C(C)N1 [Example 3-23] |  | decreased | 
CCOC(=O)C1=C(C)NC(C)=C(C(=O)OCC)C1c1ccc(Br)cc1F [Example 3-33] |  | decreased | 
CC1=C(C(=O)OC(C)(C)C)C(c2ccc(Br)cc2F)C(C(=O)OC(C)(C)C)=C(C)N1 [Example 3-34, Di-tert-butyl 4-(4-bromo-2-fluorophenyl)-1,4-dihydro-2,6-dimethylpyridine-3,5-dicarboxylate] |  | decreased | 
COCCOC(=O)C1=C(C)NC(C)=C(C(=O)OCCOC)C1c1cccc(Br)c1 [Example 3-37] |  | decreased | 
COCCOC(=O)C1=C(C)NC(C)=C(C(=O)OCCOC)C1c1ccc(Br)cc1 [Example 3-38, Bis(2-methoxyethyl) 4-(4-bromophenyl)-1,4-dihydro-2,6-dimethylpyridine-3,5-dicarboxylate] |  | decreased | 
CCOC(=O)C1=C(C)NC(C)=C(C(=O)OCC)C1c1cc(Br)ccc1F [Example 3-41, Diethyl 4-(5-bromo-2-fluorophenyl)-1,4-dihydro-2,6-dimethylpyridine-3,5-dicarboxylate] |  | decreased | 
CC1=C(C(=O)OC(C)(C)C)C(c2cc(Br)ccc2F)C(C(=O)OC(C)(C)C)=C(C)N1 [Example 3-42] |  | decreased | 
CC(C)Cc1ccc(C(C)C(=O)O)cc1 (centres unmarked) [ibuprofen] |  |  | β-amyloid deposits, astrocytosis, and dystrophic neurites [2]: reduction
CC(C)(C)c1cc(C=C(C#N)C#N)cc(C(C)(C)C)c1O [tyrphostin A9] |  |  | concentration of Aβ1-40 compared to controls [3]: significantly decreased; concentration of Aβ1-42 compared to controls [3]: significantly decreased; concentration of total β-amyloid compared to controls [3]: significantly decreased
